# pIC50: −log10 of the molar value.
# Molecular target: T1, Drak2 (Homo sapiens, UniProt O94768)
# T1 sequence (O94768 1-372): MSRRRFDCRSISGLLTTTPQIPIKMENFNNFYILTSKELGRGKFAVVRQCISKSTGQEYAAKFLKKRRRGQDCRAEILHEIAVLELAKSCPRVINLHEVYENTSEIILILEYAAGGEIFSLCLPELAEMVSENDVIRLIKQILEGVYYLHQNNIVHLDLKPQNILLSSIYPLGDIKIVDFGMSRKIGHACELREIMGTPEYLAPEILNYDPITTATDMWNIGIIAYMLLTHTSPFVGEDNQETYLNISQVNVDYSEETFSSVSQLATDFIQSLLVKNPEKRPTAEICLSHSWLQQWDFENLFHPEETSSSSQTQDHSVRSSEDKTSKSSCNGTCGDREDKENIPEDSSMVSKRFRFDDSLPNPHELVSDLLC
# Experiment: Drak2 activity test, ADP-Glo kinase assay (Promega)
# Type: biochemical
# Settings: inhibition of Drak2 kinase activity, 2 h room temperature, activity range classes, read-out: IC50_Drak2
row,pIC50,Compound
1,7.00 to 7.96,"COc1cc(-c2cncc(-c3cc(NC(=O)CC4CCCC4)cs3)n2)ccc1C(=O)N1CCOCC1 [Example B33, 2-cyclopentyl-N-(5-(6-(3-methoxy-4-(morpholine-4-carbonyl)phenyl)pyrazin-2-yl)thiophen-3-yl)acetamide]"
2,< 5.00,"CCCCC(=O)Nc1csc(-c2nccc(-c3ccc(OC)c(OC)c3)n2)c1 [Example A11, N-(5-(4-(3,4-dimethoxyphenyl)pyrimidin-2-yl)thiophen-3-yl)pentanamide]"
3,6.00 to 7.00,"COc1ccc(-c2cncc(-c3cc(NC(=O)C4CCCCC4)cs3)n2)cc1OC [Example A9, N-(5-(6-(3,4-dimethoxyphenyl)pyrazin-2-yl)thiophen-3-yl)cyclohexanecarboxamide]"
4,6.00 to 7.00,"CCCCC(=O)Nc1csc(-c2cncc(-c3ccc(C(N)=O)c(OC)c3)n2)c1 [Example B3, 2-methoxy-4-(6-(4-pentanamidothiophen-2-yl)pyrazin-2-yl)benzamide]"
5,> 8.00,"COc1cc(-c2cncc(-c3cc(NC(=O)CC4CC4)cs3)n2)ccc1C(=O)N(C)CCN(C)C [Example B56, 4-(6-(4-(2-cyclopropylacetamido)thiophen-2-yl)pyrazin-2-yl)-N-(2-(dimethylamino)ethyl)-2-methoxy-N-methylbenzamide]"
6,6.00 to 7.00,"CCCCCC(=O)Nc1csc(-c2cncc(-c3ccc(OC)c(OC)c3)n2)c1 [Example A29, N-(5-(6-(3,4-dimethoxyphenyl)pyrazin-2-yl)thiophen-3-yl)hexanamide]"
7,7.00 to 7.96,"COc1cc(-c2cncc(-c3cc(NC(=O)CC4CC4)cs3)n2)ccc1S(=O)(=O)N(C)C1CCN(C)CC1 [Example B103, 2-cyclopropyl-N-(5-(6-(3-methoxy-4-(N-methyl-N-(1-methylpiperidin-4-yl)sulfamoyl)phenyl)pyrazin-2-yl)thiophen-3-yl)acetamide]"
8,6.00 to 7.00,"CCCCC(=O)Nc1csc(-c2cncc(-c3cc(OC)cc(OC)c3)n2)c1 [Example A18, N-(5-(6-(3,5-dimethoxyphenyl)pyrazin-2-yl)thiophen-3-yl)pentanamide]"
9,7.00 to 7.96,CCCCC(=O)Nc1csc(-c2cncc(-c3ccc(OCCN4CCSCC4)c(OC)c3)n2)c1 [Example 193]
10,7.00 to 7.96,"COc1cc(-c2cncc(-c3cc(NC(=O)CC4CCC4)cs3)n2)ccc1S(=O)(=O)N(C)CCN(C)C [Example B101, 2-cyclobutyl-N-(5-(6-(4-(N-(2-(dimethylamino)ethyl)-N-methylsulfamoyl)-3-methoxyphenyl)pyrazin-2-yl)thiophen-3-yl)acetamide]"
11,7.00 to 7.96,COc1cc(-c2cncc(-c3cc(NC(=O)CC4CCC4)cs3)n2)ccc1OCCN1CCSCC1 [Example 190]
12,6.00 to 7.00,"CCCCC(=O)Nc1csc(-c2cncc(-c3cc(OC)ccc3OC)n2)c1 [Example A13, N-(5-(6-(2,5-dimethoxyphenyl)pyrazin-2-yl)thiophen-3-yl)pentanamide]"
13,7.00 to 7.96,"COc1cc(-c2cncc(-c3cc(NC(=O)CC4CCC4)cs3)n2)ccc1C(=O)N(C)OC [Example B81, 4-(6-(4-(2-cyclobutylacetamido)thiophen-2-yl)pyrazin-2-yl)-N,2-dimethoxy-N-methylbenzamide]"
14,6.00 to 7.00,"COc1cc(-c2cncc(-c3cc(NC(=O)CC4CC4)cs3)n2)ccc1CN1CCOCC1 [Example B34, 2-cyclopropyl-N-(5-(6-(3-methoxy-4-(morpholinomethyl)phenyl)pyrazin-2-yl)thiophen-3-yl)acetamide]"
15,7.00 to 7.96,"COc1cc(-c2cncc(-c3cc(NC(=O)CC4CC(F)(F)C4)cs3)n2)ccc1C(=O)N(C)C1CCN(C)CC1 [Example B83, 4-(6-(4-(2-(3,3-difluorocyclobutyl)acetamido)thiophen-2-yl)pyrazin-2-yl)-2-methoxy-N-methyl-N-(1-methylpiperidin-4-yl)benzamide]"
16,5.00 to 6.00,"COc1ccc(-c2cncc(-c3cc(NC(=O)c4ccccc4)cs3)n2)cc1OC [Example A10, N-(5-(6-(3,4-dimethoxyphenyl)pyrazin-2-yl)thiophen-3-yl)benzamide]"
17,7.00 to 7.96,"COc1cc(-c2cncc(-c3cc(NC(=O)CC4CCC4)cs3)n2)ccc1OCCN1CCOCC1 [Example 169, 2-cyclobutyl-N-(5-(6-(3-methoxy-4-(2-morpholinylethoxy)phenyl)pyrazin-2-yl)thiophen-3-yl) acetamide]"
18,5.00 to 6.00,"CCCCC(=O)Nc1csc(-c2nccc(-c3ccc(C(=O)N(C)C4CCN(C)CC4)c(OC)c3)n2)c1 [Example B66, 2-methoxy-N-methyl-N-(1-methylpiperidin-4-yl)-4-(2-(4-pentanamidothiophen-2-yl)pyrimidin-4-yl)benzamide]"

row,pIC50,Compound
1,< 5.00,"COc1ccc(-c2cncc(-c3nc(NC(=O)OC(C)(C)C)cs3)n2)cc1OC [Example D3, tert-butyl (2-(6-(3,4-dimethoxyphenyl)pyrazin-2-yl)thiazol-4-yl)carbamate]"
2,6.00 to 7.00,"CCCCC(=O)Nc1csc(-c2cncc(-c3ccc(C(=O)Nc4cn(C)c(C(=O)OC)n4)c(OC)c3)n2)c1 [Example B22, methyl 4-(2-methoxy-4-(6-(4-pentanamidothiophen-2-yl)pyrazin-2-yl)benzamido)-1-methyl-1H-imidazole-2-carboxylate]"
3,7.00 to 7.96,"COc1cc(-c2cncc(-c3cc(NC(=O)CC4CC(OC)C4)cs3)n2)ccc1C(=O)N(C)C1CC2(C1)CN(C)C2 (centres unmarked) [Example 206, 2-Methoxy-4-(6-(4-(2-(3-methoxycyclobutyl)acetylamino)thiophen-2-yl)pyrazin-2-yl)-N-methyl-N-(2-methyl-2-azaspiro [3.3]heptane-6-yl) benzamide]"
4,7.00 to 7.96,"COc1cc(-c2cncc(-c3cc(NC(=O)CC4CC4)cs3)n2)ccc1C(=O)N1CCOCC1 [Example B31, 2-cyclopropyl-N-(5-(6-(3-methoxy-4-(morpholine-4-carbonyl)phenyl)pyrazin-2-yl)thiophen-3-yl)acetamide]"
5,5.00 to 6.00,"CCCCC(=O)Nc1csc(-c2ccnc(-c3ccc(C(=O)N(C)C4CCN(C)CC4)c(OC)c3)n2)c1 [Example D5, 2-methoxy-N-methyl-N-(1-methylpiperidin-4-yl)-4-(4-(4-pentanamidothiophen-2-yl)pyrimidin-2-yl)benzamide]"
6,6.00 to 7.00,"COc1cc(-c2cncc(-c3cc(NC(=O)C4CCCCC4)cs3)n2)ccc1C(=O)O [Example B6, 4-(6-(4-(cyclohexanecarboxamido)thiophen-2-yl)pyrazin-2-yl)-2-methoxybenzoic acid]"
7,5.00 to 6.00,"CCCCC(=O)Nc1csc(-c2cncc(C3=CCN(S(C)(=O)=O)CC3)n2)c1 [Example D8, N-(5-(6-(1-(methylsulfonyl)-1,2,3,6-tetrahydropyridin-4-yl)pyrazin-2-yl)thiophen-3-yl)pentanamide]"
8,6.00 to 7.00,"CCS(=O)(=O)c1ccc(-c2cncc(-c3cc(NC(=O)CC4CCC4)cs3)n2)cc1OC [Example A46, 2-cyclobutyl-N-(5-(6-(4-(ethylsulfonyl)-3-methoxyphenyl)pyrazin-2-yl)thiophen-3-yl)acetamide]"
9,6.00 to 7.00,"COc1cc(-c2cncc(-c3cc(NC(=O)CC4CCCC4)cs3)n2)ccc1CN1CCOCC1 [Example B36, 2-cyclopentyl-N-(5-(6-(3-methoxy-4-(morpholinomethyl)phenyl)pyrazin-2-yl)thiophen-3-yl)acetamide]"
10,7.00 to 7.96,"COc1cc(-c2cncc(-c3cc(NC(=O)CC4CCC4)cs3)n2)ccc1C(=O)N1CCC(OC)CC1 [Example B49, 2-cyclobutyl-N-(5-(6-(3-methoxy-4-(4-methoxypiperidine-1-carbonyl)phenyl)pyrazin-2-yl)thiophen-3-yl)acetamide]"
11,5.00 to 6.00,"CCCCCCc1csc(-c2cncc(-c3ccc(OC)c(OC)c3)n2)c1 [Example 188, 2-(3,4-Dimethoxyphenyl)-6-(4-hexylthiophen-2-yl) pyrazine]"
12,5.00 to 6.00,"COc1cc(-c2cncc(-c3cc(NC(=O)C(C)(C)C4CCC4)cs3)n2)ccc1C(=O)N(C)C1CC2(C1)CN(C)C2 [Example 201, 4-(6-{4-[(2-cyclobutyl-2-methylpropionyl)amino]thiophen-2-yl}pyrazin-2-yl)-2-methoxy-N-methyl-N-(2-methyl-2-azaspiro [3.3]hept-6-yl) benzamide]"
13,< 5.00,"CCCCCCCCCCC(=O)Nc1csc(-c2cncc(-c3ccc(C(=O)Nc4nnn[nH]4)c(OC)c3)n2)c1 [Example B21, 2-methoxy-4-(6-(4-undecanamidothiophen-2-yl)pyrazin-2-yl)-N-(1H-tetrazol-5-yl)benzamide]"
14,< 5.00,"CCCCCCC(=O)Nc1csc(-c2cncc(-c3ccc(OC)c(OC)c3)n2)c1 [Example A30, N-(5-(6-(3,4-dimethoxyphenyl)pyrazin-2-yl)thiophen-3-yl)heptanamide]"
15,< 5.00,"CCCCCCCCCC(=O)Nc1csc(-c2cncc(-c3ccc(C(=O)Nc4nnn[nH]4)c(OC)c3)n2)c1 [Example B20, 2-methoxy-4-(6-(4-decanamidothiophen-2-yl)pyrazin-2-yl)-N-(1H-tetrazol-5-yl)benzamide]"
16,7.00 to 7.96,"COc1cc(-c2cncc(-c3cc(NC(=O)C(C)(C)C4CCC4)cs3)n2)ccc1C(=O)N(C)C1CCN(C)CC1 [Example B100, 4-(6-(4-(2-cyclobutyl-2-methylpropanamido)thiophen-2-yl)pyrazin-2-yl)-2-methoxy-N-methyl-N-(1-methylpiperidin-4-yl)benzamide]"
17,6.00 to 7.00,"CCCCC(=O)Nc1csc(-c2cncc(-c3ccc(S(C)(=O)=O)cc3)n2)c1 [Example A40, N-(5-(6-(4-(methylsulfonyl)phenyl)pyrazin-2-yl)thiophen-3-yl)pentanamide]"

# Reference: patent US20240308992A1 (Biopolar Youtang(Guangdong) Pharmaceutical Co., Ltd., priority 2021, published 2024)
